Experimental data from patent US20080221086A1, “Novel Inhibitors of Glutaminyl Cyclase” (PROBIODRUG AG, priority 2006, published 2008).
Where two headings read alike, the source gives them in different places.

Biological target: hQC (Homo sapiens, UniProt Q16769)
Assay: Fluorometric assay of glutaminyl cyclase (QC) inhibition, H-Gln-βNA or H-Gln-AMC substrate
Assay type: biochemical
Experimental: All compounds were immediately tested regarding their activity as hQC inhibitors.
The purity of the compounds was determined by HPLC-MS. The IC50 value against hQC was measured using the fluorescent assay.
All measurements were performed with a BioAssay Reader HTS-7000Plus for microplates (Perkin Elmer) at 30° C. QC activity was evaluated fluorometrically using H-Gln-βNA. The samples consisted of 0.2 mM fluorogenic substrate, 0.25 U pyroglutamyl aminopeptidase (Unizyme, Hørsholm, Denmark) in 0.2 M Tris/HCl, pH 8.0 containing 20 mM EDTA and an appropriately diluted aliquot of QC in a final volume of 250 μl. Excitation/emission wavelengths were 320/410 nm. The assay reactions were initiated by addition of glutaminyl cyclase. QC activity was determined from a standard curve of β-naphthylamine under assay conditions. One unit is defined as the amount of QC catalyzing the formation of 1 μmol pGlu-βNA from H-Gln-βNA per minute under the described conditions.
In a second fluorometric assay, QC was activity was determined using H-Gln-AMC as substrate. Reactions were carried out at 30° C. utilizing the NOVOStar reader for microplates (BMG labtechnologies). The samples consisted of varying concentrations of the fluorogenic substrate, 0.1 U pyroglutamyl aminopeptidase (Qiagen) in 0.05 M Tris/HCl, pH 8.0 containing 5 mM EDTA and an appropriately diluted aliquot of QC in a final volume of 250 μl. Excitation/emission wavelengths were 380/460 nm. The assay reactions were initiated by addition of glutaminyl cyclase. QC activity was determined from a standard curve of 7-amino-4-methylcoumarin under assay conditions. The kinetic data were evaluated using GraFit software.
For inhibitor testing, the sample composition was the same as described above, except of the putative inhibitory compound added. For a rapid test of QC-inhibition, samples contained 4 mM of the respective inhibitor and a substrate concentration at 1 KM. For detailed investigations of the inhibition and determination of Ki-values, influence of the inhibitor on the auxiliary enzymes was investigated first. In every case, there was no influence on either enzyme detected, thus enabling the reliable determination of the QC inhibition. The inhibitory constant was evaluated by fitting the set of progress curves to the general equation for competitive inhibition using GraFit software.

[1] = compound from preparative synthesis, purified by chromatography, fluorescent assay, read-out: IC50 hQC

Chain of hQC (Q16769 29-361): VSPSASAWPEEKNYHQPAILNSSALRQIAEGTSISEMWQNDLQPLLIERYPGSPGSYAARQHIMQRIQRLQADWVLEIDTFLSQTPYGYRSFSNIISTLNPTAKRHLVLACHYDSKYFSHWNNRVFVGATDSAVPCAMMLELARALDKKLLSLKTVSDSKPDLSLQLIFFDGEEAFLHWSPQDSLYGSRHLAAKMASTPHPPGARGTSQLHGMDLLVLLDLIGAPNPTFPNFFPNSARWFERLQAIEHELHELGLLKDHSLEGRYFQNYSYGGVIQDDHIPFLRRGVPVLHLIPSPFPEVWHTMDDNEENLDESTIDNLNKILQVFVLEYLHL

Structure (SMILES) | IC50 (read-out: IC50) | IC50 [1]
O=C1N/C(=N\c2ccc3c(c2)OCCO3)C(c2ccccc2Cl)N1CCCn1ccnc1 (stereo not drawn) [Compound 34, 5-(2-Chloro-phenyl)-4-2,3-dihydro-benzo1,4dioxin-6-ylimino-1-(3-imidazol-1-yl-propyl)-imidazolidin-2-one] | 4 µM | 
CCCCC1/C(=N\c2ccc3c(c2)OCCO3)NC(=O)N1CCCn1ccnc1 (stereo not drawn) [Compound 35, 5-Butyl-4-2,3-dihydro-benzo1,4dioxin-6-ylimino-1-(3-imidazol-1-yl-propyl)-imidazolidin-2-one] | 5.8 µM | 
CCCC/N=C1\NC(=O)N(CCCn2ccnc2)C1c1cccc(F)c1F (stereo not drawn) [Compound 36, 4-Butylimino-5-(2,3-difluoro-phenyl)-1-(3-imidazol-1-ylpropyl)-imidazolidin-2-one] | 6.7 µM | 
CCCC/N=C1/NC(=O)N(CCCn2ccnc2)C1c1cc(F)cc(F)c1 (stereo not drawn) [Compound 37, 4-Butylimino-5-(3,5-difluoro-phenyl)-1-(3-imidazol-1-ylpropyl)-imidazolidin-2-one] | 5.8 µM | 
O=C1N/C(=N/CCc2cccs2)C(c2ccccc2)N1CCCn1ccnc1 (stereo not drawn) [Compound 38, 1-(3-Imidazol-1-yl-propyl)-5-phenyl-4-2-thiophen-2-yl-ethylimino-imidazolidin-2-one] | 7.6 µM | 
O=C1N/C(=N/CCc2cccs2)C(C2CCC=CO2)N1CCCn1ccnc1 (stereo not drawn) [Compound 39, 5-(3,4-Dihydro-2H-pyran-2-yl)-1-(3-imidazol-1-yl-propyl)-4-2-thiophen-2-yl-ethylimino-imidazolidin-2-one] | 7.6 µM | 
O=C1N/C(=N\CCc2cccs2)C(c2cccc(F)c2F)N1CCCn1ccnc1 (stereo not drawn) [Compound 40, 5-(2,3-Difluoro-phenyl)-1-(3-imidazol-1-yl-propyl)-4-2-thiophen-2-yl-ethylimino-imidazolidin-2-one] | 4.9 µM | 
O=C1N/C(=N/CCc2cccs2)C(c2cc(F)cc(F)c2)N1CCCn1ccnc1 (stereo not drawn) [Compound 41, 5-(3,5-Difluoro-phenyl)-1-(3-imidazol-1-yl-propyl)-4-2-thiophen-2-yl-ethylimino-imidazolidin-2-one] | 3.1 µM | 
O=C1N/C(=N/CCc2cccs2)C(c2ccc(Cl)c(F)c2)N1CCCn1ccnc1 (stereo not drawn) [Compound 42, 5-(4-Chloro-3-fluoro-phenyl)-1-(3-imidazol-1-yl-propyl)-4-2-thiophen-2-yl-ethylimino-imidazolidin-2-one] | 5.8 µM | 
O=C1N/C(=N\CCc2cccs2)C(c2ccccc2Cl)N1CCCn1ccnc1 (stereo not drawn) [Compound 43, 5-(2-Chloro-phenyl)-1-(3-imidazol-1-yl-propyl)-4-(2-thiophen-2-yl-ethylimino)-imidazolidin-2-one] | 0.04 µM | 0.858 µM
O=C1N/C(=N\CCc2cccs2)C(c2ccccc2F)N1CCCn1ccnc1 (stereo not drawn) [Compound 44, 5-(2-Fluoro-phenyl)-1-(3-imidazol-1-yl-propyl)-4-(2-thiophen-2-yl-ethylimino)-imidazolidin-2-one] | 5.8 µM | 
O=C1N/C(=N/CCc2cccs2)C(c2ccc(O)cc2)N1CCCn1ccnc1 (stereo not drawn) [Compound 45, 5-(4-Hydroxy-phenyl)-1-(3-imidazol-1-yl-propyl)-4-2-thiophen-2-yl-ethylimino-imidazolidin-2-one] | 4.9 µM | 
Cc1cccc(C2C(=NCCc3c[nH]c4ccccc34)NC(=O)N2CCCn2ccnc2)c1O (stereo not drawn) [Compound 46, 5-(2-Hydroxy-3-methyl-phenyl)-1-(3-imidazol-1-yl-propyl)-4-2-(1H-indol-3-yl)-ethylimino-imidazolidin-2-one] | 2.2 µM | 
O=C1N/C(=N/CCc2c[nH]c3ccccc23)C(c2ccsc2)N1CCCn1ccnc1 (stereo not drawn) [Compound 47, 1-(3-Imidazol-1-yl-propyl)-4-2-(1H-indol-3-yl)-ethylimino-5-thiophen-3-yl-imidazolidin-2-one] | 4 µM | 
CC1/C(=N\CCc2c[nH]c3ccccc23)NC(=O)N1CCCn1ccnc1 (stereo not drawn) [Compound 48, 1-(3-Imidazol-1-yl-propyl)-4-2-(1H-indol-3-yl)-ethylimino-5-methyl-imidazolidin-2-one] | 7.6 µM | 
O=C1N/C(=N/CCc2c[nH]c3ccccc23)C(c2ccccc2)N1CCCn1ccnc1 (stereo not drawn) [Compound 49, 1-(3-Imidazol-1-yl-propyl)-4-2-(1H-indol-3-yl)-ethylimino-5-phenyl-imidazolidin-2-one] | 4.9 µM | 

Structure (SMILES) | IC50 (read-out: IC50) | IC50 [1]
O=C1N/C(=N/CCc2c[nH]c3ccccc23)C(c2ccc[nH]2)N1CCCn1ccnc1 (stereo not drawn) [Compound 50, 1-(3-Imidazol-1-yl-propyl)-4-2-(1H-indol-3-yl)-ethylimino-5-(1H-pyrrol-2-yl)-imidazolidin-2-one] | 6.7 µM | 
O=C1N/C(=N/CCc2c[nH]c3ccccc23)C(C2CCC=CO2)N1CCCn1ccnc1 (stereo not drawn) [Compound 51, 5-(3,4-Dihydro-2H-pyran-2-yl)-1-(3-imidazol-1-yl-propyl)-4-2-(1H-indol-3-yl)-ethylimino-imidazolidin-2-one] | 5.8 µM | 
O=C1N/C(=N\CCc2c[nH]c3ccccc23)C(c2cccc(F)c2F)N1CCCn1ccnc1 (stereo not drawn) [Compound 52, 5-(2,3-Difluoro-phenyl)-1-(3-imidazol-1-yl-propyl)-4-(2-(1H-indol-3-yl)-ethylimino)-imidazolidin-2-one] | 2.2 µM | 0.626 µM
O=C1N/C(=N/CCc2c[nH]c3ccccc23)C(c2cc(F)cc(F)c2)N1CCCn1ccnc1 (stereo not drawn) [Compound 53, 5-(3,5-Difluoro-phenyl)-1-(3-imidazol-1-yl-propyl)-4-2-(1H-indol-3-yl)-ethylimino-imidazolidin-2-one] | 4 µM | 
O=C1N/C(=N/CCc2c[nH]c3ccccc23)C(c2ccc(Cl)c(F)c2)N1CCCn1ccnc1 (stereo not drawn) [Compound 54, 5-(4-Chloro-3-fluoro-phenyl)-1-(3-imidazol-1-yl-propyl)-4-2-(1H-indol-3-yl)-ethylimino-imidazolidin-2-one] | 3.1 µM | 
O=C1N/C(=N/CCc2c[nH]c3ccccc23)C(c2ccccc2Cl)N1CCCn1ccnc1 (stereo not drawn) [Compound 55, 5-(2-Chloro-phenyl)-1-(3-imidazol-1-yl-propyl)-4-2-(1H-indol-3-yl)-ethylimino-imidazolidin-2-one] | 2.2 µM | 0.482 µM
O=C1N/C(=N/CCc2c[nH]c3ccccc23)C(CO)N1CCCn1ccnc1 (stereo not drawn) [Compound 56, 5-Hydroxymethyl-1-(3-imidazol-1-yl-propyl)-4-2-(1H-indol-3-yl)-ethylimino-imidazolidin-2-one] | 8.5 µM | 
O=C1N/C(=N/CCc2c[nH]c3ccccc23)C(C2CC2)N1CCCn1ccnc1 (stereo not drawn) [Compound 57, 5-Cyclopropyl-1-(3-imidazol-1-yl-propyl)-4-2-(1H-indol-3-yl)-ethylimino-imidazolidin-2-one] | 5.8 µM | 
O=C1N/C(=N/CCc2c[nH]c3ccccc23)C(c2ccco2)N1CCCn1ccnc1 (stereo not drawn) [Compound 58, 5-Furan-2-yl-1-(3-imidazol-1-yl-propyl)-4-2-(1H-indol-3-yl)-ethylimino-imidazolidin-2-one] | 6.7 µM | 
CCCCC1/C(=N\CCc2c[nH]c3ccccc23)NC(=O)N1CCCn1ccnc1 (stereo not drawn) [Compound 59, 5-Butyl-1-(3-imidazol-1-yl-propyl)-4-2-(1H-indol-3-yl)-ethylimino-imidazolidin-2-one] | 4.9 µM | 
CCC1/C(=N\CCc2c[nH]c3ccccc23)NC(=O)N1CCCn1ccnc1 (stereo not drawn) [Compound 60, 5-Ethyl-1-(3-imidazol-1-yl-propyl)-4-2-(1H-indol-3-yl)-ethylimino-imidazolidin-2-one] | 5.8 µM | 
O=C1N/C(=N/CCc2c[nH]c3ccccc23)C(c2ccccc2F)N1CCCn1ccnc1 (stereo not drawn) [Compound 61, 5-(2-Fluoro-phenyl)-1-(3-imidazol-1-yl-propyl)-4-(2-(1H-indol-3-yl)-ethylimino)-imidazolidin-2-one] | 2.2 µM | 0.452 µM
O=C1N/C(=N/CCc2c[nH]c3ccccc23)C(c2cccc(F)c2)N1CCCn1ccnc1 (stereo not drawn) [Compound 62, 5-(3-Fluoro-phenyl)-1-(3-imidazol-1-yl-propyl)-4-2-(1H-indol-3-yl)-ethylimino-imidazolidin-2-one] | 3.1 µM | 
O=C1N/C(=N/CCc2c[nH]c3ccccc23)C(c2ccc(F)cc2)N1CCCn1ccnc1 (stereo not drawn) [Compound 63, 5-(4-Fluoro-phenyl)-1-(3-imidazol-1-yl-propyl)-4-2-(1H-indol-3-yl)-ethylimino-imidazolidin-2-one] | 3.1 µM | 
O=C1N/C(=N/CCc2c[nH]c3ccccc23)C(c2ccc(O)cc2)N1CCCn1ccnc1 (stereo not drawn) [Compound 64, 5-(4-Hydroxy-phenyl)-1-(3-imidazol-1-yl-propyl)-4-2-(1H-indol-3-yl)-ethylimino-imidazolidin-2-one] | 1.3 µM | 
O=C(C/N=C1/NC(=O)N(CCCn2ccnc2)C1c1ccsc1)N1CCc2ccccc2C1 (stereo not drawn) [Compound 65, 4-2-(3,4-Dihydro-1H-isoquinolin-2-yl)-2-oxo-ethylimino-1-(3-imidazol-1-yl-propyl)-5-thiophen-3-yl-imidazolidin-2-one] | 5.8 µM | 
